Results as given in BigSolDB 2.1.

Nc1ccc(S(=O)(=O)O)cc1
solubility (mole fraction)
Conditions	in acetic acid	in acetone	in acetonitrile	in ethanol	in formic acid	in isopropanol	in methanol
278.15 K	–	0.000291	0.000132	0.000213	0.00106	0.000253	0.000247
283.15 K	–	0.000296	0.000144	0.000231	0.00116	0.00027	0.000263
288.15 K	0.00204	0.000303	0.000165	0.000251	0.00129	0.000303	0.000284
293.15 K	0.00217	0.00031	0.000178	0.000264	0.00139	0.000318	0.000299
298.15 K	0.00227	0.000317	0.000195	0.000284	0.00152	0.000348	0.000318
303.15 K	0.0024	0.000324	0.000214	0.0003	0.00166	0.000373	0.000342
308.15 K	0.00252	0.000332	0.000235	0.000323	0.00181	0.000403	0.000362
313.15 K	0.00264	0.000338	0.000255	0.000338	0.00196	0.000429	0.000383
318.15 K	0.00277	0.000346	0.000274	0.000363	0.00213	0.000461	0.000403
323.15 K	0.00291	0.000353	0.000301	0.000385	0.00231	0.000494	0.000432
328.15 K	0.00304	0.00036	0.000324	0.000403	0.00247	0.000525	0.00045
